Tested on: influenza A virus strain A/Aichi/02/68 (H3N2)
Design: species or system non-inbred male white mice
Conditions: mouse, in vivo, 60 mg/kg

CCOC(=O)c1c(CSc2ccccc2)n(C)c2cc(Br)c(O)c(CN(C)C)c12 [Arbidol 970609]
Death rate: 10/15
Increase in MST: 2.6 days
MST: 9.3 days
Protection against death (%): 33.3%

Reference: patent US20130281362A1, “ANTIVIRAL AGENT” (priority 2011, published 2013)
